Results from patent US20240293336A1, “PERCUTANEOUS ABSORPTION FORMULATION FOR TREATING SLEEP DISORDERS” (SINSIN PHARM CO., LTD., priority 2016, published 2024).

How the values were obtained:
[1] = Observation of crystal formation in the patch; type: physicochemical
Protocol: (§1) 10 wt % melatonin was placed in a 70 mL vial and dissolved in methanol, and then 90 wt % adhesive was added thereto, followed by mixing in a roll mixer for 2 hours. Next, the mixture was allowed to stand for 30 minutes to remove bubbles, after which a silicone-treated polyethylene terephthalate release film was placed on a coating machine, and the mixed adhesive was dried, and then coated onto the release film to 70 μm. Thereafter, the resultant was dried in an oven at 80° C. for 3 minutes, and then a supporting layer film was laminated thereon and compressed using a roller press. The resultant was cut of a patch cutter, thereby manufacturing a patch having an area of 10 cm^2. Next, the physical properties of the patch and crystal formation were observed, and a percutaneous absorption test was performed.
as §1, with “Melatonin and a solubilizing agent were placed” for “10 wt % melatonin was placed”, “then an” for “then 90 wt %”, “coated on” for “coated onto”, “a support” for “a supporting”, “cut by using” for “cut of”, “were observed.” for “were observed, and a percutaneous absorption test was performed.”
A crystallization inhibitor was placed and dissolved in a 70 mL vial, and then a solubilizing agent, an antioxidant and melatonin were added and dissolved, after which an adhesive was added thereto, followed by mixing in a roll mixer for 2 hours. Next, the mixture was allowed to stand for 30 minutes to remove bubbles, after which a silicone-treated polyethylene terephthalate release film was placed on a coating machine, and the mixed adhesive was dried, and then coated on the release film to 70 μm. Thereafter, the resultant was dried in an oven at 80° C. for 3 minutes, and then a support layer film was laminated thereon and compressed using a roller press. The resultant was cut by using a patch cutter, thereby manufacturing a patch having an area of 10 cm^2. Next, the physical properties of the patch and crystal formation were observed.
A crystallization inhibitor was placed and dissolved in a 70 mL vial, and then a solubilizing agent, an antioxidant, a percutaneous absorption enhancer and melatonin were added thereto and dissolved, after which an adhesive was added thereto, followed by mixing in a roll mixer for 2 hours. […]

[2] = melatonin administered orally; cited from earlier work

Compound | Crystal formation (after 1 month) (microscopic observation) [1] | crystal formation in visual observation [1] | bioavailability [2] | half-life [2]
CCOCCOCCO [Transcutol CG, ethoxydiglycol] | fine crystal formation | no crystal formation | – | –
COc1ccc2[nH]cc(CCNC(C)=O)c2c1 [melatonin] | – | – | 20% | about 1 hour
CN1CCCC1=O [N-methyl pyrrolidone] | fine crystal formation | no crystal formation | – | –
